“Also recorded” adds a separate entry of the source. Like-named read-outs stand apart in the source and are kept apart here.
How the values were obtained:
mTRPC5 = biological target: T1, mTRPC5 (Mus musculus, UniProt Q9QX29); test: Whole-cell manual patch clamp; type: cell-based; details: La3+ (80 μM)
T1 construct: The cDNAs for various full-length ion channels were subcloned into pcDNA5/TO; expressed in transfected cells

A3 (h) = biological target: T2, A3 (h) (Homo sapiens, UniProt P0DMS8); type: binding; details: 1.0E-06 M
T2 construct: host or cells: HEK-293 cells
T2 sequence (P0DMS8 1-318): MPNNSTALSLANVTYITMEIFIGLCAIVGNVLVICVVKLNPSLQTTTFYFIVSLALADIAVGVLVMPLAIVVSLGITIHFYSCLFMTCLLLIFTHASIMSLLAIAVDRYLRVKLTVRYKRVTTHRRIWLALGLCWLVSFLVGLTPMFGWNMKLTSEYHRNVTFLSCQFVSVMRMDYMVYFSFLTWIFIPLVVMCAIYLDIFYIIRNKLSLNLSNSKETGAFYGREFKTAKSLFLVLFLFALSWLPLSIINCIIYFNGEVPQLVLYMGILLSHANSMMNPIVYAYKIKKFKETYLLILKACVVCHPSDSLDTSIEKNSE

CCK2 (CCKB) (h) = CCK2 (CCKB) (h) (Homo sapiens, UniProt P32239); type: binding; details: 1.0E-06 M
[1] = biological target: glycine (strychnine-insensitive) (Rattus norvegicus, UniProt P35439); type: binding
H2 (h) = biological target: T3, H2 (h) (Homo sapiens, UniProt P25021); type: binding; details: 1.0E-06 M
T3 construct: host or cells: CHO cells

motilin (h) = biological target: T4, motilin (h) (Homo sapiens, UniProt O43193); type: binding
T4 construct: host or cells: CHO cells

Y1 (h) = biological target: T5, Y1 (h) (Homo sapiens, UniProt P25929); type: binding; details: 1.0E-06 M
T5 construct: (endogenous); host or cells: SK-N-MC cells
T5 sequence (P25929 1-384): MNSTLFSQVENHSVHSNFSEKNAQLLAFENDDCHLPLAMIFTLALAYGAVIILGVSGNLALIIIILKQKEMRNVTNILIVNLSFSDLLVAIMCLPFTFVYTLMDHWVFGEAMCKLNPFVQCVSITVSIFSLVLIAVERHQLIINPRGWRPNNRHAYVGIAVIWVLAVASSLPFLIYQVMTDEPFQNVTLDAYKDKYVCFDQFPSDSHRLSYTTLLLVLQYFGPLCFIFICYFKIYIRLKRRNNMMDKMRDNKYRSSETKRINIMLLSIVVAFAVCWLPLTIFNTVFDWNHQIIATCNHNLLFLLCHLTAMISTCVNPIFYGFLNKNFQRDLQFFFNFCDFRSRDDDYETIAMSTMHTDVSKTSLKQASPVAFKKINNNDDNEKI

sst4 (h) = sst4 (h) (Homo sapiens, UniProt P31391); type: binding; details: 1.0E-06 M
Cl- channel (GABA-gated) = type: binding, rat; details: 1.0E-06 M
MMP-9 (h) = MMP-9 (h) (Homo sapiens, UniProt P14780); test: biochemical; type: biochemical; details: 1.0E-06 M
ZAP70 kinase (h) = biological target: T6, ZAP70 kinase (h) (Homo sapiens, UniProt P43403); test: biochemical; details: 1.0E-06 M
T6 construct: host or cells: insect cells
T6 sequence (P43403 1-619): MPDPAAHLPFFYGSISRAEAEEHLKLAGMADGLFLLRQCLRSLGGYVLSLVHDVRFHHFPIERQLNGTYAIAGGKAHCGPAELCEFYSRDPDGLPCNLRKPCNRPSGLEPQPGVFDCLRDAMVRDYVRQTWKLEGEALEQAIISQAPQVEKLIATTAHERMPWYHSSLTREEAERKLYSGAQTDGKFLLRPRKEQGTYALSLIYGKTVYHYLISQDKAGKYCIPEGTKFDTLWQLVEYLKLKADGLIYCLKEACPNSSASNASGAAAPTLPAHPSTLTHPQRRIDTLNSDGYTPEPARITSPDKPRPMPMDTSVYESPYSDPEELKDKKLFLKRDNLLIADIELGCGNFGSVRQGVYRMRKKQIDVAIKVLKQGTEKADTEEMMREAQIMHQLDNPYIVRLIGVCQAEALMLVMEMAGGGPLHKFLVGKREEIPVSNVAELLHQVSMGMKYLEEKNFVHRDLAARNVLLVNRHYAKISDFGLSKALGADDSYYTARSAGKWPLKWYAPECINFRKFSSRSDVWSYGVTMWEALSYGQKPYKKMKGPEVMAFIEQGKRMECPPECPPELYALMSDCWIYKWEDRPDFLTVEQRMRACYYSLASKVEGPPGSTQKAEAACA

GABA transporter = GABA transporter (Rattus norvegicus, UniProt P23978)
D2S (h) = D2S (h) (Homo sapiens, UniProt P14416); test: biochemical
Kv1.5 = Kv1.5 (Homo sapiens, UniProt P22460); test: Ion channel selectivity patch clamp; type: cell-based; details: Voltage (+40 mV)
Kv4.3 = Kv4.3 (Homo sapiens, UniProt Q9UK17); test: Ion channel selectivity patch clamp; type: cell-based; details: Voltage (+40 mV)
range of ion channels = test: Ion channel selectivity panel, whole-cell manual patch clamp; type: cell-based; details: at 1.9 μM
[2] = Standard elevated plus maze; details: male, C57/BL6, mouse, in vivo, 3 mg/kg
C57/BL6 mice = test: Standard elevated plus maze; details: 3 mg/kg oral, 60 min prior

MMP-9 (h), sequence (P14780 94-707): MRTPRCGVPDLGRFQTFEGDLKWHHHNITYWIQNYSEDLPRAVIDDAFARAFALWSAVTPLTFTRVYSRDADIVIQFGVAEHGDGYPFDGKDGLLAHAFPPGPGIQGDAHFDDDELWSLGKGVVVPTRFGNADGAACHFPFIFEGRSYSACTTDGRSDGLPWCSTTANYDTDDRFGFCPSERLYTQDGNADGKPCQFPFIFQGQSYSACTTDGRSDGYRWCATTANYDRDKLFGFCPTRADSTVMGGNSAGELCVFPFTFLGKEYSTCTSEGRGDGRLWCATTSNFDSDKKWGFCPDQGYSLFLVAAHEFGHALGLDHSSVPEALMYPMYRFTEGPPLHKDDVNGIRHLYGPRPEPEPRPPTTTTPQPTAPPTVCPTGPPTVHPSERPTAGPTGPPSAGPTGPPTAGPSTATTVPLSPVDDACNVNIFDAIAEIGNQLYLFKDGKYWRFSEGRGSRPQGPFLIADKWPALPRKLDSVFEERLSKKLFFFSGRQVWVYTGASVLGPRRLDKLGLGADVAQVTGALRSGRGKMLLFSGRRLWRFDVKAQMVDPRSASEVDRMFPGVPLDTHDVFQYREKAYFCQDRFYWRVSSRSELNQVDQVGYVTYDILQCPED
T4 sequence (O43193 whole entry): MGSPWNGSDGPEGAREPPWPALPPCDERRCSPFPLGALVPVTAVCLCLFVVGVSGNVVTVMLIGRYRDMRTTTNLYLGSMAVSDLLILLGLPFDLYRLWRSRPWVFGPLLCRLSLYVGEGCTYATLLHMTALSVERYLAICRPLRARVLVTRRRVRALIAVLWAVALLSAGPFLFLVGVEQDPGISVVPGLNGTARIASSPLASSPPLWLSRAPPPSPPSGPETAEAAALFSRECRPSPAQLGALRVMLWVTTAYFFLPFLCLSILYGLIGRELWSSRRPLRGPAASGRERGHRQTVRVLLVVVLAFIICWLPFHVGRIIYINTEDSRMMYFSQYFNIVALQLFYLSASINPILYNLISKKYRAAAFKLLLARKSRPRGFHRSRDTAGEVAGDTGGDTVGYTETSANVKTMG
CCK2 (CCKB) (h), sequence (P32239 whole entry): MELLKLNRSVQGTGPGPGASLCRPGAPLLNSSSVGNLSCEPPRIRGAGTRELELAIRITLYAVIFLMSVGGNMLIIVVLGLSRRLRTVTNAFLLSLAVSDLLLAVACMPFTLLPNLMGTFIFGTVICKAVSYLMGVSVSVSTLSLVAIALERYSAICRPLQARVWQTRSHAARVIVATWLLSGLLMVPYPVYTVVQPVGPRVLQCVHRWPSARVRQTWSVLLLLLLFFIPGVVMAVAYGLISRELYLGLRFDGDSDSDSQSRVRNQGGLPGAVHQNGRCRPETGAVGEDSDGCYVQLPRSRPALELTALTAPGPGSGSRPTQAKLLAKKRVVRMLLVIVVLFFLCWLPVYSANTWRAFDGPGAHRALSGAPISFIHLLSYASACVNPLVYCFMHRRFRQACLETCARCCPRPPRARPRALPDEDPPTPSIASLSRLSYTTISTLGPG
sst4 (h), sequence (P31391 whole entry): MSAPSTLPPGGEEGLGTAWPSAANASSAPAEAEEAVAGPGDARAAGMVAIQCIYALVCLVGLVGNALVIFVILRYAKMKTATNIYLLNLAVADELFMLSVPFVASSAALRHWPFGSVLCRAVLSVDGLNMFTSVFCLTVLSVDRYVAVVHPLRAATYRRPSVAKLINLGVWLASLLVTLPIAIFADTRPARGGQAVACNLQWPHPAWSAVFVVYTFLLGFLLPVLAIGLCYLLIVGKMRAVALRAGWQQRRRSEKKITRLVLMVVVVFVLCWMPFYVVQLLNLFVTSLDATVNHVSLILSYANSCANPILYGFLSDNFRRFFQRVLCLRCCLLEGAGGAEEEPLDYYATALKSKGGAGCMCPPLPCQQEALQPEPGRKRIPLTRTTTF
T3 sequence (P25021 whole entry): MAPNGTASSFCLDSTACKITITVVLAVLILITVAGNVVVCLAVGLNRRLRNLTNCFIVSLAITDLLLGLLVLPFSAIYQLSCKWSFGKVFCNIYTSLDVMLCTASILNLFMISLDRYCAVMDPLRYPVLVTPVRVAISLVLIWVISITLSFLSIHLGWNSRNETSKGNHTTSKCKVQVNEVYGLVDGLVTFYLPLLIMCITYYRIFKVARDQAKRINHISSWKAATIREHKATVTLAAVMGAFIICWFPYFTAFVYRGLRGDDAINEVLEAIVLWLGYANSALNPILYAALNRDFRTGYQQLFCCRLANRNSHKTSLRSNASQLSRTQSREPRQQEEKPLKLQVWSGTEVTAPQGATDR
D2S (h), sequence (P14416 1-414 isoform P14416-2): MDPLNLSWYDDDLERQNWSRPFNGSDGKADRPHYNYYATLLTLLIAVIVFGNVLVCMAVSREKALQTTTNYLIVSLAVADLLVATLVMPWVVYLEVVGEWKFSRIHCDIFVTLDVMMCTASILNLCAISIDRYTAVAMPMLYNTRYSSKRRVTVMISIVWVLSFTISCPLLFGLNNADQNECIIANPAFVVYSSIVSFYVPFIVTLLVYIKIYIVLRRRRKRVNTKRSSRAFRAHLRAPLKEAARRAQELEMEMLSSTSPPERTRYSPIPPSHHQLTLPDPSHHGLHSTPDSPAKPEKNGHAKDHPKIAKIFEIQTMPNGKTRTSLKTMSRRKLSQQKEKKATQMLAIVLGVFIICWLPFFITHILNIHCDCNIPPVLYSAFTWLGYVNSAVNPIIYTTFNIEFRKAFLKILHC
Kv1.5, sequence (P22460 whole entry): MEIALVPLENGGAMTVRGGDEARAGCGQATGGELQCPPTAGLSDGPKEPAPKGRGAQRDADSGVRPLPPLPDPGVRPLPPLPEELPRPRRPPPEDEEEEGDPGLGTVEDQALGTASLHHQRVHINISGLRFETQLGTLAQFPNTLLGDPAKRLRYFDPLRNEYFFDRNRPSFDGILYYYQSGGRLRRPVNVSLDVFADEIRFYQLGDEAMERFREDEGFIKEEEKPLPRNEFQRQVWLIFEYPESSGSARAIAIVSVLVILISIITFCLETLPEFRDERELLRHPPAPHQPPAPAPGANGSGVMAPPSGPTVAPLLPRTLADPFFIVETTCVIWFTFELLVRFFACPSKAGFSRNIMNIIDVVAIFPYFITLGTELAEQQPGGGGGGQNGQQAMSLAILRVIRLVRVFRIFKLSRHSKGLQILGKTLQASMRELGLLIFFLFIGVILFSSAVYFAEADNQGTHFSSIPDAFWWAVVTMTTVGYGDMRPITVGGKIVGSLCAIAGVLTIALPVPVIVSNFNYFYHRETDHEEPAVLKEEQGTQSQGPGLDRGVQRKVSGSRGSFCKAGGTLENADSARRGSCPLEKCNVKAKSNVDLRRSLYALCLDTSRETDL
T1 sequence (Q9QX29 whole entry): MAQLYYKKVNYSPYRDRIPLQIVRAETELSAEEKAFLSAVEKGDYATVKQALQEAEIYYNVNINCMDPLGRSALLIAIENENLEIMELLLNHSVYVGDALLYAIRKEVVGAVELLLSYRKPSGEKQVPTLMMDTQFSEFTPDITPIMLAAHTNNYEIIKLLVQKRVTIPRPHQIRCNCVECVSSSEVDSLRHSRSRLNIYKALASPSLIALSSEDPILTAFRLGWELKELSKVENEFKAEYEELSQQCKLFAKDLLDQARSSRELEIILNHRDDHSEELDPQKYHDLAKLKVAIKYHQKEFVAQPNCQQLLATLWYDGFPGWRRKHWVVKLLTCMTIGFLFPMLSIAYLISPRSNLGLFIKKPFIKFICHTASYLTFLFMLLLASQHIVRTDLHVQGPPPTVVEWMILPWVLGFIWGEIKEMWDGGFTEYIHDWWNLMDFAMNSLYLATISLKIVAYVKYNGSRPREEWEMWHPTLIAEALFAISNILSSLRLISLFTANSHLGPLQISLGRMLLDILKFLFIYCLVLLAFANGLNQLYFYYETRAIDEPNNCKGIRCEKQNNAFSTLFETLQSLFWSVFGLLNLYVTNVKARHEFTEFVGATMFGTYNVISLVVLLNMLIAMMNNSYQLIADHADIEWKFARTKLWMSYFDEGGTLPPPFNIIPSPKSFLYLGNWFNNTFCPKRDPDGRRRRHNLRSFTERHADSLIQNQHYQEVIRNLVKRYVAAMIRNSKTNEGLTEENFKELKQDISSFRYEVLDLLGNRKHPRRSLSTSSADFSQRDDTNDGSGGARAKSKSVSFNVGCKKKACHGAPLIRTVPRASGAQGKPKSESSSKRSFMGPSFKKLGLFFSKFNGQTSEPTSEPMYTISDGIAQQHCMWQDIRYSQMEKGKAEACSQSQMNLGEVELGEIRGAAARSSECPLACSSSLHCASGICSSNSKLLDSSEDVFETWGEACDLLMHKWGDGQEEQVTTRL

Q: What does the source list for `Cn1c(=O)n(CCCO)c(=O)c2c1nc(Oc1cccc(OC(F)(F)F)c1)n2Cc1ccc(Cl)cc1` [HC-608]?
A: IC50 (mTRPC5): ~0.62 nM; inhibition at 1 µM (A3 (h); read-out: % Inhibition 1st): 28.3%; inhibition at 1 µM (A3 (h); read-out: % Inhibition 2nd): 36.4%; inhibition at 1 µM (A3 (h); read-out: % Inhibition Mean): 32.3%; inhibition at 1 µM (CCK2 (CCKB) (h); read-out: % Inhibition 1st): -13.8%; inhibition at 1 µM (CCK2 (CCKB) (h); read-out: % Inhibition 2nd): -0.7%; inhibition at 1 µM (CCK2 (CCKB) (h); read-out: % Inhibition Mean): -7.2%; inhibition at 1 µM ([1]; read-out: % Inhibition 1st): 1.7%; inhibition at 1 µM ([1]; read-out: % Inhibition 2nd): 3.1%; inhibition at 1 µM ([1]; read-out: % Inhibition Mean): 2.4%; inhibition at 1 µM (H2 (h); read-out: % Inhibition 1st): 1.1%; inhibition at 1 µM (H2 (h); read-out: % Inhibition 2nd): 7.7%; inhibition at 1 µM (H2 (h); read-out: % Inhibition Mean): 4.4%; inhibition at 1 µM (motilin (h); 1.0E-06 M, read-out: % Inhibition 1st): -25.4%; inhibition at 1 µM (motilin (h); 1.0E-06 M, read-out: % Inhibition 2nd): -16.2%; inhibition at 1 µM (motilin (h); read-out: % Inhibition Mean): -20.8%; inhibition at 1 µM (Y1 (h); read-out: % Inhibition 1st): -12.8%; inhibition at 1 µM (Y1 (h); read-out: % Inhibition 2nd): -14.1%; inhibition at 1 µM (Y1 (h); read-out: % Inhibition Mean): -13.4%; inhibition at 1 µM (sst4 (h); read-out: % Inhibition 1st): -27%; inhibition at 1 µM (sst4 (h); read-out: % Inhibition 2nd): 9.5%; inhibition at 1 µM (sst4 (h); read-out: % Inhibition Mean): -8.8%; % Inhibition 1st (Cl- channel (GABA-gated)): 24.7%; % Inhibition 2nd (Cl- channel (GABA-gated)): 23.2%; % Inhibition Mean (Cl- channel (GABA-gated)): 23.9%; inhibition at 1 µM (MMP-9 (h); read-out: % Inhibition 1st): 8.7%; inhibition at 1 µM (MMP-9 (h); read-out: % Inhibition 2nd): 17.2%; inhibition at 1 µM (MMP-9 (h); read-out: % Inhibition Mean): 13%; inhibition at 1 µM (ZAP70 kinase (h); read-out: % Inhibition 1st): -1.6%; inhibition at 1 µM (ZAP70 kinase (h); read-out: % Inhibition 2nd): -3%; inhibition at 1 µM (ZAP70 kinase (h); read-out: % Inhibition Mean): -2.3%; % Inhibition 2nd (GABA transporter): -18.4%; % Inhibition Mean (GABA transporter): -15.7%; inhibition at 1 µM (D2S (h); read-out: % Inhibition 1st): 19.2%; inhibition at 1 µM (D2S (h); read-out: % Inhibition 2nd): 9.4%; inhibition at 1 µM (D2S (h); read-out: % Inhibition Mean): 14.3%

Q: For `Cn1c(=O)n(CCCO)c(=O)c2c1nc(Oc1cccc(Cl)c1)n2Cc1ccc(Cl)cc1` [HC-070], which IC50 (Kv1.5) is on record?
A: > 1900 nM

Q: What about the IC50 (Kv4.3) of the same molecule?
A: > 1900 nM

Q: What about the “inhibition in most cases” value (range of ion channels) of the same molecule?
A: ≤ 50%

Q: And the concentration at 60 min [2]?
A: 782 ± 250 nM

Q: What about the “number of open arm entries compared to vehicle” value (C57/BL6 mice) of the same molecule?
A: increased open arm entries; also recorded: significantly increased
